Results taken from US20240374677A1, “VARIOUS COMPOUNDS FOR THE TREATMENT OF NEUROFIBROMATOSIS TYPE 1” (PUSAN NATIONAL UNIVERSITY INDUSTRY-UNIVERSITY COOPERATION …, priority 2023, published 2024).

Columns and labels:
[1] = test system: skin cells NF-09, NF-21, and NF-11 of NF1 patients; assay: MTT assay in skin cells of NF1 patients; assay type: cell-based, human
Protocol: The cell proliferation inhibitory effect of PN-NF27 was confirmed by an MTT method using skin cells NF-09, NF-21, and NF-11 of NF1 patients. […]
(§1) The cell proliferation inhibitory effect of PN-NF38 was confirmed using skin cells NF-09, NF-21, and NF-11 of NF1 patients. Specifically, skin fibroblasts (passage>8) incubated for 48 hours were treated with PN-NF38 at 0, 0.1, 1, 2.5, 5, and 10 μM for 24 hours, and then added with 3-(4,5-dimethylthiazol-2-yl)-2,5-diphenyltetrazolium bromide (MTT) and reacted for 1 hours, and then the absorbance was measured at 550 nm.
as §1, with “PN-NF41” for “PN-NF38”, “24” for “48”, “5” for “PN-NF38 at 0, 0.1, 1, 2.5, 5, and 10”, “μM of PN-NF41” for “μM”, “72” for “24”

[2] = test system: human lung cancer cells A549; assay: MTT assay in A549 cells; assay type: cell-based; settings: A549, various concentrations, 72 hours, FIG. 11
Protocol: (§2) Human lung cancer cells A549 and A549GR were treated with PN-NF27, PN-NF28, PN-NF30, PN-NF38, and PN-NF41, respectively, and then the MTT assay results were shown. Specifically, A549 and A549GR (anticancer resistant) cells incubated for 24 hours in a 96 well plate were treated with various concentrations of compounds for 72 hours, respectively, and then added with 10 μl of 3-(4,5-dimethylthiazole-2-yl)-2,5-diphenyltetrazolium bromide (MTT) and after 2 hours, the absorbance was measured at 550 nm.

NF1 protein [3] = assay: Western blot of NF1 protein in mouse embryonic fibroblasts (MEF); assay type: cell-based; settings: for NF1 protein increasing effect (Western blot): MEF cells, 6 hours, compared to other substances, FIG. 10; for NF1 protein quantification (Western blot) vs control group: MEF
Protocol: (§3) The effect of increasing NF1 protein in human renal epithelial-like cells (293T), human lung cancer cells (A549), and mouse embryonic fibroblasts (MEF) was analyzed using Western blot. Specifically, the cells incubated in a 10% FBS+DMEM culture medium for 48 hours were treated with 5 μM each of compounds for 6 hours, and then the quantified protein samples were subjected to electrophoresis. After electrophoresis, the proteins in the gel were transferred to a PVDF membrane and then Western blot was performed using NF1 antibody (Abcam, Cat#ab128054).
In addition, the effect of increasing NF1 protein in mouse embryonic fibroblasts (MEF) was analyzed using Western blot. A specific method was as described in Experimental Example 3.
The effect of increasing NF1 protein in mouse embryonic fibroblasts (MEF) was analyzed using Western blot. A specific method was as described in Experimental Example 3.

NF1-GRD1 protein [4] = assay: Nano-Glo HiBiT lytic assay of NF1-GRD1 protein in stable 293T cells; assay type: cell-based, human; settings: FIG. 9; for treatment time at which the maximum effect was shown: 6 hours and 24 hours tested
Protocol: The cells were treated in the same manner as in Experimental Example 1 except that the treatment time was 6 hours and 24 hours, respectively, and the results of measuring the activity in each case were illustrated in FIG. 9.
The cells were treated in the same manner as in Experimental Example 1, except that the treatment time was 6 hours and 24 hours, respectively, and the concentration of PN-NF27 was 0 μM, 0.25 μM, 0.5 μM, 1.0 μM, and 5.0 μM, and the results of measuring the activity in each case were illustrated in FIG. 8.

NF1 protein [5] = assay: Western blot of NF1 protein in A549 cells; assay type: cell-based, human; settings: 5 μM, 6 hours, FIG. 10
Protocol: as §3

NF1-GRD1 protein [6] = assay: Nano-Glo HiBiT lytic assay of NF1-GRD1 protein in stable 293T cells; assay type: cell-based, human; settings: for effect of increasing NF1 protein, times higher than control group: 293T cells stably expressing NF1-GRD1, treated 24 hours, luciferase activity vs DMSO-treated control, FIG. 8; for concentration showing the highest activity: 0-5.0 μM tested
[7] = test system: A549GR (anticancer resistant) cells; assay: MTT assay in A549GR cells; assay type: cell-based, human; settings: various concentrations, 72 hours, FIG. 11
Protocol: as §2

NF1 protein [8] = assay: Western blot of NF1 protein in 293T cells; assay type: cell-based, human; settings: 5 μM, 6 hours, FIG. 10
Protocol: as §3

NF1 protein [9] = assay: Western blot of NF1 protein in skin cells of NF1 patients; assay type: cell-based, human; settings: 1 μM; normal cells and NF-09, NF-21, NF-11 cells, FIG. 13
Protocol: as §3
The effect of increasing NF1 protein in skin cells NF-09, NF-21, and NF-11 of NF1 patients was analyzed using Western blot. A specific method was as described in Experimental Example 3.

[10] = test system: HCT-8, HCT-15, HCT-116, PANC1, and PC3 cells; assay: MTT assay in colon, pancreatic and prostate cancer cells; assay type: cell-based, human; settings: 0, 0.1, 0.5, 1, 5, 10 μM, 72 hours, FIG. 17
Protocol: The cell proliferation inhibitory effect of PN-NF30 was confirmed using human colon cancer cells HCT-8, HCT-15, and HCT-116, human pancreatic cancer cells PANC1, and human prostate cancer cells PC3. Specifically, the HCT-8, HCT-15, HCT-116, PANC1, and PC3 cells incubated for 24 hours in a 96 well plate were treated with compounds at concentrations of 0, 0.1, 0.5, 1, 5, and 10 μM for 72 hours, respectively, and then added with 10 μl of 3-(4,5-dimethylthiazole-2-yl)-2,5-diphenyltetrazolium bromide (MTT) and after 1 hours, the absorbance was measured at 550 nm.

SMILES	cell proliferation (MTT), concentration dependence ([1]; 0, 0.1, 1, 2.5, 5, 10 μM, 24 hours, FIG. 19)	cell viability (MTT) ([1]; 10 μM, 24 hours, FIG. 19)	cell proliferation (MTT) [2]	NF1 protein increasing effect (Western blot) (NF1 protein [3]; 5 μM)	NF1 protein quantification (Western blot) vs control group (NF1 protein [3]; 2 μM, FIG. 18)	treatment time at which the maximum effect was shown (NF1-GRD1 protein [4])	maximum effect compared to the control group (NF1-GRD1 protein [4]; treatment time 24 hours)	NF1 protein increasing effect (Western blot) (NF1 protein [5])	effect of increasing NF1 protein, times higher than control group (NF1-GRD1 protein [6])	cell proliferation (MTT) [7]	cell proliferation (MTT) treated vs not treated ([1]; 1 μM (result text), 72 hours, normal cells and NF-09, NF-21, NF-11 cells, FIG. 15)	NF1 protein increasing effect (Western blot) (NF1 protein [8])	NF1 protein (Western blot) treated vs not treated (NF1 protein [9])	NF1 protein quantification (Western blot) vs control group (NF1 protein [3]; 1 μM, FIG. 14)	maximum effect compared to the control group (NF1-GRD1 protein [4]; treatment time 6 hours)	activity compared with the case not treated (0 μM) (NF1-GRD1 protein [6]; PN-NF27 at 0.25, 0.5, 1.0, 5.0 μM, 6 hours and 24 hours, FIG. 12)	concentration showing the highest activity (NF1-GRD1 protein [6]; incubated for 24 hours, FIG. 12)	concentration showing the highest activity (NF1-GRD1 protein [6]; treated for 6 hours, FIG. 12)	NF1 protein quantification (Western blot) vs control group (NF1 protein [3]; 5 μM, FIG. 16)	cell proliferation (MTT), concentration dependence [10]
C=C(NC(=O)C(=C)NC(=O)c1csc(C2=N[C@@H]3c4csc(n4)[C@H]4NC(=O)c5csc(n5)[C@H]([C@](C)(O)[C@@H](C)O)NC(=O)[C@H]5CSC(=N5)/C(=C/C)NC(=O)[C@H]([C@@H](C)O)NC(=O)c5csc(n5)[C@]3(CC2)NC(=O)[C@H](C)NC(=O)C(=C)NC(=O)[C@H](C)NC(=O)[C@H]([C@@H](C)CC)N[C@@H]2C=Cc3c([C@H](C)O)cc(nc3[C@H]2O)C(=O)O[C@@H]4C)n1)C(N)=O [PN-NF38, Thiostrepton]	tended to be effectively inhibited as the concentration of PN-NF38 cells increased	less than 0.3	effectively inhibited	superior to other substances	tended to increase	24 h	11 fold	superior to other substances	about 20 times	effectively inhibited	–	–	–	–	–	–	–	–	–	–
C/C=C(/C)C(=O)O[C@H]1C(C)=C[C@]23C(=O)[C@@H](C=C(COC(C)=O)[C@@H](O)[C@]12O)[C@H]1[C@@H](C[C@H]3C)C1(C)C [PN-NF27, 20-O-acetylingenol-3-angelate]	–	–	effectively inhibited	superior to other substances	–	≤ 6 h	–	superior to other substances	about 6 times	effectively inhibited	tended to be inhibited	excellent	tended to increase	tended to increase	24 fold	higher activity	0.5 µM	5.0 µM	–	–
CN1CCc2cccc3c2[C@H]1Cc1ccc(O)c(O)c1-3.CN1CCc2cccc3c2[C@H]1Cc1ccc(O)c(O)c1-3.Cl.Cl.O [PN-NF30, R(−) Apomorphine hydrochloride hemihydrate, reference compound]	–	–	effectively inhibited	–	–	–	–	superior to other substances	about 2 times	effectively inhibited	–	–	–	–	–	–	–	–	tended to increase	tended to effectively inhibit cell proliferation as the concentration increased
